Tests used:
normal pooled plasma = assay: Blood coagulation activities (aPTT, PT, fibrinogen) in normal pooled plasma; set-up: species or system human; conditions: after incubation with 50 or 100 μg/ml
Protocol: MA-CDPS, HP-CDPS, CE-CDPS and CDPS (as defined in examples 3-4 and characterised in table 1) were prepared as buffered solutions at various concentrations. The polysaccharides were incubated with normal pooled plasma prepared out of 40 healthy volunteers and analyzed for their effects on activated partial thromboplastin time (aPTT), prothrombin time (PT) and fibrinogen levels on a STA Compact® coagulation analyzer (available from Diagnostica Stago, Asnieres, France) according to the manufacturers instructions.

[1] = system: healthy donor thrombocytes; assay: Platelet activation (CD62p, flow cytometry) by HIT patient anti-heparin/PF4 antibodies; assay type: cell-based, human; conditions: for ratio: % CD62p+ (with substance)/% CD62p+ (without) / ΔCD62p+ %: percentage increases in CD62p positive platelets: 0.3 IU heparin or 5 μg/ml polysaccharide
Protocol: The activation of healthy donor thrombocytes by HIT patient anti-heparin/PF4 antibodies in the presence of heparin and the differently sulfated forms of β-cyclodextrin was tested. […] The expression of CD62p by the activated platelets was assayed by means of flow cytometry with a FC500 analyzer (available from Beckman Coulter, Belgium). Platelet-rich plasma solution (PRP) was prepared by slow centrifugation (10 minutes at 180 g) of fresh citrate anti-coagulated blood (1:9 v/v, 0.129 mol/L or 3.8% trisodium citrate buffer), obtained from normal donors. HIT Ab positive plasma samples from patients and HIT Ab negative control plasma from healthy donors were prepared by double centrifugation (15 minutes at 2230 rpm) of fresh citrate anti-coagulated blood. 70 μl of PRP was incubated with 20 μL of HIT Ab containing plasma optionally in the presence of heparin (0.3 IU/ml) or the relevant β-cyclodextrin derivative (5 μg/ml). Experiments with each HIT Ab positive plasma sample were repeated independently using thrombocytes of 2 donors (A and B), to avoid the possibility of non-reactive platelets.
Following the initial 40 minutes incubation step, 5 μl of the platelets solution was transferred to a fresh tube with 85 μL phosphate buffered saline (PBS) containing 1% bovine serum albumin (BSA) and 0.1% Na-azide, 5 μl (0.25 μg) monoclonal anti-CD41 antibodies (Ab) (phycoerythrin-Texas Red Energy coupled dye (ECD)-conjugated, Beckman Coulter) and 5 μl (0.125 μg) of anti-CD62p Ab (phycoerythrin (PE)-conjugated, Beckman Coulter). CD41 (Glycoprotein […]) is a selective marker of platelets and platelet precursors. CD62p is a constituent of alpha granules and is released to the platelet surface on activation.
After 20 minutes of incubation at room temperature, the total volume of the platelet suspension was adjusted to 600 μL buffered solution and evaluated without delay by flow cytometry. 20,000 events per sample were analysed and the platelet populations were gated by side scatter characteristics and the platelet marker CD41. The fraction of activated platelets among the total platelet population was determined and relative CD62p ratios to the internal controls were calculated. [ratio: % CD62p^+ (0.3 IU Heparine or 5 μg/ml β-cyclodextrin derivative)/% CD62p^+ (0 IU Heparine or 0 μg/ml β-cyclodextrin derivative)]. Test results for the heparin treated platelets were evaluated by the scoring system described in Thromb. Haemost. (1999) 82:1255-1259. Control tests were scored positive when the calculated ratios of at least 2 donors were more then 2, based on previously obtained results with normal individuals. To evaluate the potential of the different β-cyclodextrin derivatives to induce platelet activation, both the percentages and ratios of CD62p^+ platelets after incubation with the respective β-cyclodextrin were statistically compared to the percentage and the ratio of CD62p^+ platelets after heparin incubation.

C57BI/6 male mice = assay: Collagenase-induced knee osteoarthritis in mice, histopathology; assay type: in vivo
Protocol: Knee osteoarthritis was induced by injecting the right knees of adult (10 weeks) C57BI/6 male mice with 10 μl of a 2 U/μl collagenase type VII (Sigma C-9572, available from Sigma-Aldrich Belgium) solution. The left knee of these animals was injected with 10 μl PBS and served as a control. Two groups of each 8 mice were randomized on weight, the first group was injected subcutaneously once weekly, with 1 mg/kg of the CE-CDPS of example 3, the second group was treated with saline. Treatment was initiated three days after the mice received their intra-articular injection. The animals were fed a standard diet with tap water ad libitum and their weight was recorded twice a week. The mice were sacrificed three weeks after induction of knee osteoarthritis and the liver, kidneys and knee joints were fixed immediately in 2% neutral buffered paraformaldehyde (Fluka 76240, available from Sigma-Aldrich Belgium).
After fixation, knee joints were decalcified in 0.5 M EDTA in PBS and embedded in paraffin. 5μ tissue sections were cut and stained with haematoxylin and eosin for an analysis of the general morphology or with safranin-O for an assessment of proteoglycan content. Each 100 μm, 3 sections of the joint were evaluated.
Stained slides were submitted for evaluation. The following parameters were evaluated: synovial inflammation, fibrosis, osteophytes and erosion of cartilage. Synovial inflammation was graded from 0 to +3 as follows: 0 no changes from normal; +1 mild changes; +2 moderate changes; and +3 severe changes.
Fibrosis was scored as follows: 0 no changes from normal; +1 fibrosis without metaplasia; +2 fibrosis associated with chondroplasia; +3 fibrosis associated with metaplastic bone. Osteophytes were graded from 0 to +4 referring to the amount of osteophytes observed, with a maximum score of 1 per compartment.
Cartilage erosion was graded from 0 to +3 as follows: 0 no changes from normal; +1 only superficial erosion; +2 loss of proteoglycan in one compartment; and +3 loss of proteoglycan in different compartments. In this scoring system the femoral/tibial junction as a whole was taken in consideration by 2 independent investigators.

[2] = HIT ab plasma pat1, platelet donor dA
[3] = HIT ab plasma pat1, platelet donor dB
[4] = HIT ab plasma pat2, platelet donor dA
[5] = HIT ab plasma pat2, platelet donor dB
[6] = HIT ab plasma pat3, platelet donor dA
[7] = HIT ab plasma pat3, platelet donor dB
[8] = HIT ab plasma pat4, platelet donor dA
[9] = HIT ab plasma pat4, platelet donor dB
[10] = in the presence of plasma samples of individuals that had developed HIT Ab
[11] = 1 mg/kg subcutaneously once weekly, OA knees

Row | Substance | fibrinogen concentrations (normal pooled plasma) | ratio: % CD62p+ (with substance)/% CD62p+ (without) [1, 2] | ΔCD62p+ %: percentage increases in CD62p positive platelets [1, 2] [%] | ratio: % CD62p+ (with substance)/% CD62p+ (without) [1, 3] | ΔCD62p+ %: percentage increases in CD62p positive platelets [1, 3] [%] | ratio: % CD62p+ (with substance)/% CD62p+ (without) [1, 4] | ΔCD62p+ %: percentage increases in CD62p positive platelets [1, 4] [%] | ratio: % CD62p+ (with substance)/% CD62p+ (without) [1, 5] | ΔCD62p+ %: percentage increases in CD62p positive platelets [1, 5] [%] | ratio: % CD62p+ (with substance)/% CD62p+ (without) [1, 6] | ΔCD62p+ %: percentage increases in CD62p positive platelets [1, 6] [%] | ratio: % CD62p+ (with substance)/% CD62p+ (without) [1, 7] | ΔCD62p+ %: percentage increases in CD62p positive platelets [1, 7] [%] | ratio: % CD62p+ (with substance)/% CD62p+ (without) [1, 8] | ΔCD62p+ %: percentage increases in CD62p positive platelets [1, 8] [%] | ratio: % CD62p+ (with substance)/% CD62p+ (without) [1, 9] | ΔCD62p+ %: percentage increases in CD62p positive platelets [1, 9] [%] | platelet activation [1, 10] | further results
1 | Sulfated (2-carboxyethyl)-β-cyclodextrin [CE-CDPS] | Minor decreases | 1.8 | 13.9 | 2.2 | 14.4 | 1.1 | 2.4 | 1.2 | 1.1 | 1.4 | 7.9 | 2.7 | 10.2 | 2.2 | 22.9 | 2.4 | 45.0 | do not significantly activate platelets | cross-reactivity with the heparin/PF4 antibodies ([1]; paired analysis versus heparin, ratios and percentages of CD62p positive cells): no cross-reactivity; osteophyte growth (C57BI/6 male mice; [11]): not inhibited; pannus formation (C57BI/6 male mice; [11]): not inhibited; synovial inflammation (C57BI/6 male mice; [11]): not inhibited; weight of the animals (C57BI/6 male mice; 1 mg/kg subcutaneously once weekly, three weeks): did not affect; overall cartilage damage (Safranine O staining) (C57BI/6 male mice; 1 mg/kg subcutaneously once weekly, versus PBS-treated): reduced; cartilage proteoglycan depletion in osteoarthritis knee joints (C57BI/6 male mice; collagenase-induced knee-osteoarthritis in mice): prevented
2 | Sulfated (2-hydroxypropyl)-β-cyclodextrin [HP-CDPS] | Minor decreases | 4.9 | 67.6 | 5.1 | 53.0 | 1.0 | 0.1 | 1.1 | 1.2 | 2.1 | 23.3 | 4.7 | 17.1 | 4.6 | 63.2 | 2.8 | 60.7 | induced platelet activation | –
3 | heparin | – | 4.2 | 45.5 | 2.2 | 14.3 | 2.8 | 45.6 | 3.9 | 15.1 | 4.3 | 60.3 | 8.2 | 42.3 | 2.7 | 34.8 | 2.8 | 56.4 | – | platelet heparin activation ratios % CD62p+ (0.3 IU heparin)/% CD62p+ (0 IU heparin) ([1]; all HIT Ab positive plasma samples, the two donors): above 2; platelet activation ([1]; in the absence of patient's HIT Ab): not activated
4 | Sulfated 6-monoamino-6-monodeoxy β-cyclodextrin [MA-CDPS] | Minor decreases | 5.2 | 74.8 | 5.5 | 69.9 | 1.4 | 9.6 | 3.5 | 17.4 | 1.9 | 16.7 | 8.2 | 32.6 | 3.5 | 51.1 | 3.1 | 63.6 | induced platelet activation | –

— US20110172182A1, “Carboxyethylated Cyclodextrin Polysulfates Useful As Medicaments” (ARCARIOS B.V., priority 2008, published 2011)
